Data set [1] deals with SARS-COV-2-induced syncytium formation in Vero E6 cells. As to conditions: drug screen with more than 3,000 approved drugs (ref. 19); cited from earlier work.
Data set [2] relates to SARS-COV-2 spike-induced syncytium formation in A549-ACE2 cells. Type of data set: cell-based. As to conditions: A549-ACE2-GFP1-10 cells pre-incubated with drug 20 min in FBS-free medium, then mixed with 293T-spike-GFP11-mCherry cells, 24 h.
A further data set relates to SARS-COV-2. As to conditions: Vero E6 cells; previous study (ref. 25); cited from earlier work.

Here are results for three molecules from patent US20240255506A1, “PAIRED-CELL PROFILING SYSTEMS FOR HIGH-THROUGHPUT SCREENING SYNCYTIUM FORMATION” (priority 2023, published 2024).

`COCCCC/C(=N\OCCN)c1ccc(C(F)(F)F)cc1` [fluvoxamine]: in data set [1], the SARS-COV-2-induced syncytium formation entry is “some inhibitory effects”.

With `O=C1NC(=NS(=O)(=O)c2cccc3ccccc23)S/C1=C\c1ccc(Br)cc1` [Pitstop 2], the “cell-cell fusion process (syncytium formation)” value in data set [2] is “suppressed the cell-cell fusion process”. As for `CC(CN1c2ccccc2Sc2ccccc21)N(C)C` (stereo not shown) [promethazine], in the data set with SARS-COV-2, the SARS-COV-2-induced cytotoxicity result is given as “reduces SARS-COV-2-induced cytotoxicity”. The SARS-COV-2-induced syncytium formation entry in data set [1] is given as “some inhibitory effects”.
